According to patent publication US10160762B2, “6-alkyl dihydropyrazolopyrimidinone compounds as PDE2 inhibitors” (Merck Sharp & Dohme Corp., priority 2015, dated 2018):

target: T1, human PDE2A1 (Homo sapiens, UniProt O00408); assay: IMAP FP PDE assay, human PDE2A1; type: biochemical; conditions: Lab B; read-out: Human PDE2 Ki (nM) Lab B
T1 construct: GST; purchased BPS Bioscience (San Diego, Calif.) 60020; host or cells: insect cells
In short: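 FP (IMAP) read after 60 min room-temperature reaction of insect-cell GST-human PDE2A1 with 50 nM FAM-cAMP plus 1000 nM cGMP (pH 7.2 Tris, Mg2+, DTT). Compounds titrated 3-fold over ten points. Apparent Ki derived assuming KM of 10,000 nM; enzyme at 20% substrate turnover.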

T1 sequence (O00408 1-920 isoform O00408-2): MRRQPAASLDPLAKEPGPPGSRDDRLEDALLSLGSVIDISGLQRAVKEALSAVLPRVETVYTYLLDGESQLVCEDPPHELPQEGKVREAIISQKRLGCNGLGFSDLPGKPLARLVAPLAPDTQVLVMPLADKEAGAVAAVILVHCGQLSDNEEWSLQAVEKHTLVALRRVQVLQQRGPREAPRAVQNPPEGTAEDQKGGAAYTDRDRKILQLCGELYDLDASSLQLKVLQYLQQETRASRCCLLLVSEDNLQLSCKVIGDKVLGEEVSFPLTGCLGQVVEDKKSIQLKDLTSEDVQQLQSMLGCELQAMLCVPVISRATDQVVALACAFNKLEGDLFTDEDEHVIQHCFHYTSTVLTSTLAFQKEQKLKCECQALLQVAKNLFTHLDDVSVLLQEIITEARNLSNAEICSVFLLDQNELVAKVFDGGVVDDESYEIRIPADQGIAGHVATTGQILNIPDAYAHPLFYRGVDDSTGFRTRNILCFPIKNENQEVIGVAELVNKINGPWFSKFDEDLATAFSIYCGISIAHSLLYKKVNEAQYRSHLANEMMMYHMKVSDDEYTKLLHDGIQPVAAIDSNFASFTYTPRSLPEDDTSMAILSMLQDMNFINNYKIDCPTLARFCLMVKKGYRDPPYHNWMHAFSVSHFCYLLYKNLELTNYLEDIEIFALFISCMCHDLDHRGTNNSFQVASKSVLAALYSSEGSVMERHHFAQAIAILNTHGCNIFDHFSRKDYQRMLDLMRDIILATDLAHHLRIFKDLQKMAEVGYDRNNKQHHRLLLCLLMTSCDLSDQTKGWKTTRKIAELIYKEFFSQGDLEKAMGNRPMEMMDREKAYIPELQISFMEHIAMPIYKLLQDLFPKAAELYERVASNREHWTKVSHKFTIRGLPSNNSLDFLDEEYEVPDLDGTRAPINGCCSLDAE

Compound	Ki [nM]
CNC(=O)c1nn(C(C)c2ccc(C(F)(F)F)cc2)c2nc(C)[nH]c(=O)c12 (single isomer, unassigned) [Example 265]	375
Cc1nc2c(c(CO)nn2C(C)c2ccc(C(F)(F)F)c(C)c2)c(=O)[nH]1 (single isomer, unassigned) [Example 106, (R)- or (S)-3-(Hydroxymethyl)-6-methyl-1-(1-(3-methyl-4-(trifluoromethyl)phenyl)ethyl)-1H-pyrazolo[3,4-d]pyrimidin-4(5H)-one]	633
CC(c1ccc(C(F)(F)F)cc1)n1nc(CO)c2c(=O)[nH]c(C3CCCO3)nc21 (single isomer, unassigned) [Example 311, (R,R)- or (S,S)- or (R,S)- or (S,R)-3-(Hydroxymethyl)-6-(tetrahydrofuran-2-yl)-1-(1-(4-(trifluoromethyl)-phenyl)ethyl)-1,5-dihydro-4H-pyrazolo[3,4-d]pyrimidin-4-one]	~1210
CC(c1ccc(C(F)(F)F)cc1)n1nc(CO)c2c(=O)[nH]c(CC3CC3)nc21 (single isomer, unassigned) [Example 309, (R)- or (S)-6-(Cyclopropyl-methyl)-3-(hydroxymethyl)-1-(1-(4-(trifluoromethyl)phenyl)ethyl)-1,5-dihydro-4H-pyrazolo[3,4-d]pyrimidin-4-one]	420
CC(c1ccc(C(F)(F)F)cc1)n1nc(-c2nnco2)c2c(=O)[nH]c(CC3CC3)nc21 (single isomer, unassigned) [Example 340, (R)- or (S)-6-(Cyclopropylmethyl)-3-(1,3,4-oxadiazol-2-yl)-1-(1-(4-(trifluoromethyl)phenyl)ethyl)-1,5-dihydro-4H-pyrazolo[3,4-d] pyrimidin-4-one]	2.2
COc1cccc(Cc2nc3c(c(C#N)nn3C(C)c3ccc(C(F)(F)F)cc3)c(=O)[nH]2)c1 (single isomer, unassigned) [Example 348]	4.7
Cc1nc2c(c(CO)nn2C(c2ccc(C(F)(F)F)c(F)c2)C2(C)CC2)c(=O)[nH]1 (single isomer, unassigned) [Example 14, (R)- or (S)-1-((3-Fluoro-4-(trifluoromethyl)phenyl)(1-methylcyclopropyl)methyl)-3-(hydroxymethyl)-6-methyl-1H-pyrazolo[3,4-d]pyrimidin-4(5H)-one]	2.4
Cc1nc2c(c(CO)nn2C(C)[C@H]2CC[C@H](C(F)(F)F)CC2)c(=O)[nH]1 (single isomer, unassigned) [Example 124, (R)- or (S)-3-(Hydroxymethyl)-6-methyl-1-((trans)-4-(trifluoromethyl)cyclohexyl) ethyl)-1H-pyrazolo[3,4-d]-pyrimidin-4(5H)-one]	521
Cc1nc2c(c(CO)nn2C(C)c2ccc(S(F)(F)(F)(F)F)cc2F)c(=O)[nH]1 (single isomer, unassigned) [Example 120]	496
Cc1nc2c(c(CO)nn2C2CCc3cc(C(F)(F)F)ccc32)c(=O)[nH]1 (single isomer, unassigned) [Example 103, (S)- or (R)-3-(Hydroxymethyl)-6-methyl-1-(5-(trifluoromethyl)-2,3-dihydro-1H-inden-1-yl)-1H-pyrazolo[3,4-d]pyrimidin-4(5H)-one]	19
Cc1nc2c(c(CO)nn2C(C)c2ccc(C(F)(F)F)s2)c(=O)[nH]1 (single isomer, unassigned) [Example 155, (R)- or (S)-3-(Hydroxymethyl)-6-methyl-1-(1-(5-(trifluoromethyl)thiophen-2-yl)ethyl)-1H-pyrazolo[3,4-d]pyrimidin-4(5H)-one]	~1630

Results, then the molecule that gave them:

Ki [nM]	Compound
16	Cc1nc2c(c(CO)nn2C(CC(F)(F)F)c2ccc(C(F)(F)F)cc2)c(=O)[nH]1 (single isomer, unassigned) [Example 96, (R)- or (S)-3-(Hydroxymethyl)-6-methyl-1-(3,3,3-trifluoro-1-(4-(trifluoromethyl)phenyl)propyl)-1H-pyrazolo[3,4-d]pyrimidin-4(5H)-one]
75	Cc1nc2c(c(CF)nn2C(C)c2ccc(CC(F)(F)F)cc2)c(=O)[nH]1 (single isomer, unassigned) [Example 210, (R)- or (S)-3-(Fluoromethyl)-6-methyl-1-(1-(4-(2,2,2-trifluoroethyl)phenyl)ethyl)-1H-pyrazolo[3,4-d]pyrimidin-4(5H)-one]
0.31	Cc1nc2c(c(C(F)F)nn2C(c2ccc(C(F)(F)F)cc2)C(C)C)c(=O)[nH]1 (single isomer, unassigned) [Example 172, (S)- or (R)-3-(Difluoromethyl)-6-methyl-1-(2-methyl-1-(4-(trifluoromethyl)phenyl)propyl)-1H-pyrazolo[3,4-d] pyrimidin-4(5H)-one]
350	Cc1nc2c(c(OCC(F)(F)F)nn2C(C)c2ccc(C(F)(F)F)cc2)c(=O)[nH]1 (single isomer, unassigned) [Example 288]
375	Cc1nc2c(c(OCC(F)(F)F)nn2C(C)c2ccc(C(F)(F)F)cc2)c(=O)[nH]1 (single isomer, unassigned) [Example 287]
3.4	CC(c1ccc(C(F)(F)F)cc1)n1nc(C(F)F)c2c(=O)[nH]c(C3CC3)nc21 (single isomer, unassigned) [Example 192, (S)- or (R)-6-Cyclopropyl-3-(difluoromethyl)-1-(1-(4-(trifluoromethyl)phenyl)ethyl)-1,5-dihydro-4H-pyrazolo[3,4-d]pyrimidin-4-one]
48	Cc1nc2c(c(-c3cn[nH]c3)nn2C(C)c2ccc(C(F)(F)F)cc2)c(=O)[nH]1 (single isomer, unassigned) [Example 238]
28	Cc1nc2c(c(C(F)F)nn2C(C)c2ccc(SC(F)(F)F)cc2)c(=O)[nH]1 (single isomer, unassigned) [Example 179, (R)- or (S)-3-(Difluoromethyl)-6-methyl-1-(1-(4-(trifluoromethylthio)phenyl)ethyl)-1H-pyrazolo[3,4-d] pyrimidin-4(5H)-one]
~567	Cc1nc2c(c(CC(C)(C)O)nn2C(C)c2ccc(C(F)(F)F)cc2)c(=O)[nH]1 (stereo not drawn) [Example 247, 3-(2-Hydroxy-2-methylpropyl)-6-methyl-1-(1-(4-(trifluoromethyl)phenyl)ethyl)-1H-pyrazolo[3,4-d]pyrimidin-4(5H)-one]
14	Cc1nc2c(c(C(F)F)nn2C(C)c2ccc(C(F)(F)F)nc2)c(=O)[nH]1 (single isomer, unassigned) [Example 194]
591	Cc1nc2c(c(CO)nn2C(C)c2ccc(C(F)(F)C(F)(F)F)cc2)c(=O)[nH]1 (single isomer, unassigned) [Example 98, (R)- or (S)-3-(Hydroxymethyl)-6-methyl-1-(1-(4-(perfluoroethyl)phenyl)ethyl)-1H-pyrazolo[3,4-d]pyrimidin-4(5H)-one]
434	Cc1nc2c(c(CC(O)C(F)(F)F)nn2C(C)c2ccc(C(F)(F)F)cc2)c(=O)[nH]1 (single isomer, unassigned) [Example 242]
6.3	Cc1nc2c(c(C(F)F)nn2C(C)c2ccc(C(F)(F)C(F)(F)F)cc2)c(=O)[nH]1 (stereo not drawn) [Example 165, 3-(Difluoromethyl)-6-methyl-1-(1-(4-(perfluoroethyl)phenyl)ethyl)-1H-pyrazolo[3,4-d]pyrimidin-4(5H)-one]
